# Reference: PubChem BioAssay AID1259407 (Chemical Carcinogenesis Research Information System (CCRIS), 2018)
# Calls of active or inactive are those of the source. How the calls were made is not given here.
# Test system: CCRIS mutagenicity, Ames/micronucleus/aberration tests
# Experiment: CCRIS mutagenicity studies
smiles,measurement,setting,value
CCO[Si](C)(OCC)OCC,mutagenic call,"Test System: AMES SALMONELLA TYPHIMURIUM, Strain/Indicator: TA98, Metabolic Activation: NONE, Method: STANDARD PLATE",inactive; negative
same,mutagenic call,"Test System: AMES SALMONELLA TYPHIMURIUM, Strain/Indicator: TA98, Metabolic Activation: RAT LIVER S-9, AROCLOR 1254, Method: STANDARD PLATE",inactive; negative
same,mutagenic call,"Test System: AMES SALMONELLA TYPHIMURIUM, Strain/Indicator: TA100, Metabolic Activation: NONE, Method: STANDARD PLATE",inactive; negative
same,mutagenic call,"Test System: AMES SALMONELLA TYPHIMURIUM, Strain/Indicator: TA100, Metabolic Activation: RAT LIVER S-9, AROCLOR 1254, Method: STANDARD PLATE",inactive; negative
same,mutagenic call,"Test System: AMES SALMONELLA TYPHIMURIUM, Strain/Indicator: TA1535, Metabolic Activation: NONE, Method: STANDARD PLATE",inactive; negative
same,mutagenic call,"Test System: AMES SALMONELLA TYPHIMURIUM, Strain/Indicator: TA1535, Metabolic Activation: RAT LIVER S-9, AROCLOR 1254, Method: STANDARD PLATE",inactive; negative
same,mutagenic call,"Test System: AMES SALMONELLA TYPHIMURIUM, Strain/Indicator: TA1537, Metabolic Activation: NONE, Method: STANDARD PLATE",inactive; negative
same,mutagenic call,"Test System: AMES SALMONELLA TYPHIMURIUM, Strain/Indicator: TA1537, Metabolic Activation: RAT LIVER S-9, AROCLOR 1254, Method: STANDARD PLATE",inactive; negative
same,mutagenic call,"Test System: AMES SALMONELLA TYPHIMURIUM, Strain/Indicator: TA1538, Metabolic Activation: NONE, Method: STANDARD PLATE",inactive; negative
same,mutagenic call,"Test System: AMES SALMONELLA TYPHIMURIUM, Strain/Indicator: TA1538, Metabolic Activation: RAT LIVER S-9, AROCLOR 1254, Method: STANDARD PLATE",inactive; negative
same,mutagenic call,"Test System: E. COLI, Strain/Indicator: P3078 POLA, Metabolic Activation: NONE, Method: SPOT TEST",inactive; negative
same,mutagenic call,"Test System: E. COLI, Strain/Indicator: P3078 POLA, Metabolic Activation: RAT LIVER S-9, AROCLOR 1254, Method: SPOT TEST",inactive; negative
same,mutagenic call,"Test System: E. COLI, Strain/Indicator: W3110, Metabolic Activation: NONE, Method: SPOT TEST",inactive; negative
same,mutagenic call,"Test System: E. COLI, Strain/Indicator: W3110, Metabolic Activation: RAT LIVER S-9, AROCLOR 1254, Method: SPOT TEST",inactive; negative
same,mutagenic call,"Test System: MOUSE LYMPHOMA, Strain/Indicator: L5178Y (TK+/TK-), Metabolic Activation: NONE, Method: SUSPENSION/PLATE",inactive; negative
same,mutagenic call,"Test System: MOUSE LYMPHOMA, Strain/Indicator: L5178Y (TK+/TK-), Metabolic Activation: RAT, LIVER, S-9, Method: SUSPENSION/PLATE",inactive; negative
Cc1cnc2ccc3c(nc(N)n3C)c2n1,mutagenic call,"End Point: IN VIVO MICRONUCLEUS, Test System: BONE MARROW POLYCHROMATIC ERYTHROCYTES, Species: MOUSE, Strain/Sex: BALB/C/MALE, Route: IP INJECTION",inactive; negative
same,mutagenic call,"Test System: AMES SALMONELLA TYPHIMURIUM, Strain/Indicator: TA98, Metabolic Activation: CYNOMOLGUS MONKEY, LIVER, MICROSOMES, Method: PREINCUBATION",inactive; negative
same,mutagenic call,"Test System: AMES SALMONELLA TYPHIMURIUM, Strain/Indicator: TA98, Metabolic Activation: CYNOMOLOGUS MONKEY, LIVER, MICROSOMES, 2,3,7,8-TETRACHLORODIBENZO-P-DIOXIN, Method: PREINCUBATION",active; positive
same,mutagenic call,"Test System: AMES SALMONELLA TYPHIMURIUM, Strain/Indicator: TA98, Metabolic Activation: CYNOMOLOGUS MONKEY, LIVER, MICROSOMES, 2-AMINO-3-METHYLIMIDAZO[4,5-F]QUINOLINE, Method: PREINCUBATION",active; positive
same,mutagenic call,"Test System: AMES SALMONELLA TYPHIMURIUM, Strain/Indicator: TA98, Metabolic Activation: CYNOMOLOGUS MONKEY, LIVER, MICROSOMES, RIFAMPICIN, Method: PREINCUBATION",inactive; negative
same,mutagenic call,"Test System: AMES SALMONELLA TYPHIMURIUM, Strain/Indicator: TA98, Metabolic Activation: HUMAN, LIVER, MICROSOMES, Method: PREINCUBATION",active; positive
same,mutagenic call,"Test System: AMES SALMONELLA TYPHIMURIUM, Strain/Indicator: TA98, Metabolic Activation: MONKEY, LIVER, MICROSOMES, Method: PREINCUBATION",active; positive
same,mutagenic call,"Test System: AMES SALMONELLA TYPHIMURIUM, Strain/Indicator: TA98, Metabolic Activation: NONE, Method: PREINCUBATION",inactive; negative
same,mutagenic call,"Test System: AMES SALMONELLA TYPHIMURIUM, Strain/Indicator: TA98, Metabolic Activation: PATAS MONKEY, LIVER, MICROSOMES, Method: PREINCUBATION",active; positive
same,mutagenic call,"Test System: AMES SALMONELLA TYPHIMURIUM, Strain/Indicator: TA98, Metabolic Activation: RABBIT (6 TO 9 D OF AGE), LIVER, MICROSOMES, 3-METHYLCHOLANTHRENE, Method: PREINCUBATION",inactive; negative
same,mutagenic call,"Test System: AMES SALMONELLA TYPHIMURIUM, Strain/Indicator: TA98, Metabolic Activation: RABBIT (6 TO 17 D OF AGE), LIVER, MICROSOMES, Method: PREINCUBATION",inactive; negative
same,mutagenic call,"Test System: AMES SALMONELLA TYPHIMURIUM, Strain/Indicator: TA98, Metabolic Activation: RABBIT (9 D OF AGE TO ADULT), LIVER, MICROSOMES, 3-METHYLCHOLANTHRENE, Method: PREINCUBATION",active; positive
same,mutagenic call,"Test System: AMES SALMONELLA TYPHIMURIUM, Strain/Indicator: TA98, Metabolic Activation: RABBIT (17 D OF AGE TO ADULT), LIVER, MICROSOMES, Method: PREINCUBATION",active; positive
same,mutagenic call,"Test System: AMES SALMONELLA TYPHIMURIUM, Strain/Indicator: TA98, Metabolic Activation: RAT, LIVER, MICROSOMES, Method: PREINCUBATION",active; positive
same,mutagenic call,"Test System: AMES SALMONELLA TYPHIMURIUM, Strain/Indicator: TA98, Metabolic Activation: RAT, LIVER, S-9, AROCLOR 1254, Method: PREINCUBATION",active; positive
same,mutagenic call,"Test System: AMES SALMONELLA TYPHIMURIUM, Strain/Indicator: TA98, Metabolic Activation: RAT, LIVER, S-9, AROCLOR 1254, Method: STANDARD PLATE",active; positive
same,mutagenic call,"Test System: AMES SALMONELLA TYPHIMURIUM, Strain/Indicator: TA100, Metabolic Activation: NONE, Method: PREINCUBATION",inactive; negative
same,mutagenic call,"Test System: AMES SALMONELLA TYPHIMURIUM, Strain/Indicator: TA100, Metabolic Activation: RAT, LIVER, S-9, AROCLOR 1254, Method: PREINCUBATION",active; positive
same,mutagenic call,"Test System: AMES SALMONELLA TYPHIMURIUM, Strain/Indicator: YG1019, Metabolic Activation: RAT LIVER S-9, AROCLOR, Method: PREINCUBATION",active; positive
same,mutagenic call,"Test System: CHINESE HAMSTER V-79, Strain/Indicator: V-79/6-THIOGUANINE, Metabolic Activation: RAT, LIVER, S-9, AROCLOR 1254",inactive; negative
same,mutagenic call,"Test System: UDS HAMSTER HEPATOCYTES, Strain/Indicator: THY INCORP, Metabolic Activation: NONE, Method: LIQUID SCINTILLATION COUNTING",active; positive
same,mutagenic call,"Test System: UDS HUMAN HEPATOCYTES, Strain/Indicator: THY INCORP, Metabolic Activation: NONE, Method: AUTORADIOGRAPHY",active; positive
same,mutagenic call,"Test System: UDS MOUSE HEPATOCYTES, Strain/Indicator: THY INCORP, Metabolic Activation: NONE, Method: AUTORADIOGRAPHY",inactive; negative
same,mutagenic call,"Test System: UDS RAT HEPATOCYTES, Strain/Indicator: THY INCORP, Metabolic Activation: NONE, Method: AUTORADIOGRAPHY",inactive; negative
same,mutagenic call,"Test System: UDS RAT HEPATOCYTES, Strain/Indicator: THY INCORP, Metabolic Activation: NONE, Method: LIQUID SCINTILLATION COUNTING",inactive; negative
